# Source: US20200093128A1, “ACIDULATED SURFACTANT COMPOSITIONS AND METHODS OF REDUCING MICROBIAL LOAD” (The United States of America, as represented by the …, priority 2018, published 2020)
# Where two headings read alike, the source gives them in different places. Marks after values point to notes of the source that are not given here.
# Experiments:
# Salmonella [1] = format: cell-based, S. enterica; conditions: dip-inoculated grape tomatoes, 100 ml wash, 2 min
# Excerpt: (§1) This example illustrates an embodiment of the effectiveness of the inventive composition. […]. The four most acid-resistant strains out of the fourteen were selected for use in this study. These four strains consisted of cattle isolate #'s 199, 758, 851, and 859, provided by Dr. T. G. Nagaraja (Distinguished Microbiology Professor, Kansas State University, Department of Veterinary Medicine). Five outbreak strains of Listeria monocytogenes were used, including L499, L502, L008, L2624, and L2625, provided by Dr. Bassam Annous (USDA-ARS-ERRC). Four serovars of S. enterica (Salmonella Newport H1275 (ERRC culture collection)), St. Paul 02-517-1 (cantaloupe outbreak), Stanley H0558 (CDC stool sample, 1995 sprout outbreak), and Montevideo G4639 (1993 tomato outbreak)) were also utilized. All isolates (except for the L. monocytogenes outbreak strains) were selected for spontaneous mutants resistant to 100 ppm of the antibiotic compound nalidixic acid (L. monocytogenes is naturally resistant to 100 ppm nalidixic acid and so was plated on media containing 100 ppm nalidixic acid without need for selection of spontaneous mutants). Isolates were individually incubated for 24 h at 37° C. in 10 mL of Tryptic Soy Broth (Difco, Sparks, Md.)+100 ppm nalidixic acid (TSBN), as an antimicrobial marker and to preclude potential contamination on plates. […]
# E. coli O157:H7 [2] = format: cell-based; conditions: dip-inoculated grape tomatoes, 100 ml wash, 2 min
# Excerpt: as §1
# Total Coliforms [3] = conditions: watercress, 200 ppm NaOCl, pH-unadjusted; cited from earlier work
# Salmonella [4] = conditions: Parsley, Cl 100 PPM, 5 min, Lapidot et al. (2006); cited from earlier work
# pH of wash solution = format: physicochemical; conditions: wash solutions of the grape tomato test (Table 4)
# Listeria Monocytogenes = experiment: BS EN 1276 test for sanitizer efficacy of NaClO; format: cell-based; conditions: 0.03% bovine serum, 5 min, 22±1° C.
# Excerpt: (§2) This example illustrates an embodiment of the effectiveness of the inventive composition. […]. The four most acid-resistant strains out of the fourteen were selected for use in this study. These four strains consisted of cattle isolate #'s 199, 758, 851, and 859, provided by Dr. T. G. Nagaraja (Distinguished Microbiology Professor, Kansas State University, Department of Veterinary Medicine). Five outbreak strains of Listeria monocytogenes were used, including L499, L502, L008, L2624, and L2625, provided by Dr. Bassam Annous (USDA-ARS-ERRC). Four serovars of S. enterica (Salmonella Newport H1275 (ERRC culture collection)), St. Paul 02-517-1 (cantaloupe outbreak), Stanley H0558 (CDC stool sample, 1995 sprout outbreak), and Montevideo G4639 (1993 tomato outbreak)) were also utilized. All isolates (except for the L. monocytogenes outbreak strains) were selected for spontaneous mutants resistant to 100 ppm of the antibiotic compound nalidixic acid (L. monocytogenes is naturally resistant to 100 ppm nalidixic acid and so was plated on media containing 100 ppm nalidixic acid without need for selection of spontaneous mutants). Isolates were individually incubated for 24 h at 37° C. in 10 mL of Tryptic Soy Broth (Difco, Sparks, Md.)+100 ppm nalidixic acid (TSBN), as an antimicrobial marker and to preclude potential contamination on plates. Suspensions were centrifuged at 1980×g for 10 min, and resuspended in 5 ml of sterile deionized water and vortexed vigorously for 3 minutes. All strains of each individual species of bacteria were composited in a single sterile 500 mL beaker for inoculation of grape tomatoes.
# (§3) L. monocytogenes was plated on Thermo Scientific™ Brilliance™ Listeria Agar (BLA, ThermoFisher Scientific, Fairlawn, N.J.)+100 ppm nalidixic acid without the addition of BLA antimicrobial supplements+0.1% sodium pyruvate (to aid in recovering injured cells) (see e.g., Gurtler, J. B. & L. R. Beuchat, (2005) Appl. Environ. Microbiol. 71:7661-7669; Gurtler, J. B. & Kornacki, J. L. (2009) Lett. Appl. Microbiol. 49:503-509; Wesche, A. M., et al. (2009) J. Food Prot. 72, 1121-1138). Salmonella was plated on tryptic soy agar (Difco)+100 mg/L nalidixic acid+0.1% sodium pyruvate+80 mg/L X-α-Gal (5-Bromo-4-Chloro-3-indolyl-α-D-galactopyranoside) (Research Products Intl., Mt. Prospect, Ill.)+100 mg/L Isopropyl-β-D-thiogalactopyranoside (IPTG, Fisher Scientific). X-α-Gal induces a green color change by salmonellae colonies. E. coli O157:H7 was plated tryptic soy agar (Difco)+100 mg/L nalidixic acid+0.1% sodium pyruvate+175 mg/L red/salmon-Gal (6-Chloro-3-indolyl-β-D-galactopyranoside)+100 mg/L IPTG. Red/salmon-Gal induces a pink color change by E. coli colonies.
# (§4) BS EN 1276 Test for Sanitizer Efficacy of Sodium Hypochlorite (NaClO). The British Standard, European Normalization Method 1276 for sanitizers was chosen to evaluate the efficacy low level NaClO. The level of free chlorine ranged from 10 to 48 ppm free chlorine, as tested with the LaMotte Model CL-BR 3624 titration kit (Chestertown, Md.). The BS EN 1276 method as well as the French AFNOR NFT 72170 method has been traditionally used to evaluate sanitizer effectiveness (see e.g., Jacquet, C., and Reynaud, A. (1994) Int. J. Food Microbiol. 22:79-83; Taylor, J. H., et al. (1999) Int. J. Appl. Microbiol. 87:718-725). The BS EN 1276 method involves adding 0.03% bovine albumin to represent clean conditions and 0.3% albumin for dirty conditions. Briefly, 1 ml of either 0.03% or 0.3% bovine serum was added to a sterile 15 ml test tube, followed by 1 ml of the ca. 9 log CFU/ml test solution of each bacterial composite. The suspension was permitted to sit for 2 min and then 8 ml of an appropriately diluted NaClO solution was added to the 2 ml of bacteria-bovine solution suspension where concentrations of sanitizer solution were adjusted to mathematically account for the 2:8 dilution with the pathogen suspension at 10 ppm, 16 ppm, and 48 ppm. All tests were conducted at 22±1° C. […]
# E. coli O157:H7 [5] = experiment: BS EN 1276 test for sanitizer efficacy of NaClO; format: cell-based; conditions: 0.03% bovine serum, 5 min, 22±1° C.
# Excerpt: as §2, §3, §4
# [6] = tested on: Salmonella, E. coli, Listeria monocytogenes, coliforms or aerobic mesophilic bacteria; experiment: Previous studies: produce treated with NaClO, summary of Table 1; format: cell-based; conditions: Table 1 studies, average 154.2 ppm free chlorine, average treatment time 5.42 min
# Listeria innocua = conditions: Lettuce, Cl 10 PPM, 5.0 min, Francis and O'Beime (2002); cited from earlier work
# [7] = tested on: Salmonella and E. coli O157:H7; conditions: tomato stem scars, 200 ppm free chlorine, pH-unadjusted; cited from earlier work
# Aerobic Bacteria = conditions: cited from earlier work
# EHEC = conditions: cited from earlier work
# Total Coliforms [8] = conditions: Lettuce, Cl 200 PPM, 10 min, Nascimento et al. (2003); cited from earlier work
# Salmonella [9] = experiment: BS EN 1276 test for sanitizer efficacy of NaClO; format: cell-based, S. enterica; conditions: 0.03% bovine serum, 5 min, 22±1° C.
# Excerpt: as §2, with “tomatoes. […]” for “tomatoes.”
# E. coli = conditions: Cl 100 PPM, 10.0 min, cited from earlier work
# [10] = tested on: Salmonella and E. coli O157:H7; conditions: strawberries, 6.44 pH-adjusted free chlorine, 198 ppm; cited from earlier work
# EHEC & Salmonella = conditions: Lettuce, Cl 200 PPM, cited from earlier work
# [11] = tested on: S. enterica, L. monocytogenes or E. coli O157:H7; experiment: BS EN 1276 chlorine test, summary over the three pathogens; format: cell-based; conditions: 48 ppm chlorine, 5 min, 3% bovine albumin (dirty conditions)
# L. monocytogenes [12] = format: cell-based, Listeria monocytogenes; conditions: dip-inoculated grape tomatoes, 100 ml wash, 2 min
# Excerpt: as §1
# L. monocytogenes [13] = conditions: cited from earlier work
smiles,measurement,setting,value
"OCl [NaClO, sodium hypochlorite]","reduction, Salmonella",Salmonella [1],2.60 ± 0.25 B log CFU/g
same,"reduction, E. coli O157:H7",E. coli O157:H7 [2],2.92 ± 0.38 BC log CFU/g
same,inactivation of pathogens,Total Coliforms [3],1.1 log
same,Inactivation,Salmonella [4],1.7 Log CFU
same,pH Values,pH of wash solution,9.88
same,log CFU/mL reduction,Listeria Monocytogenes; 10 ppm free chlorine,1.22 B ± 0.19 log CFU/mL
same,log CFU/mL reduction,Listeria Monocytogenes; 16 ppm free chlorine,2.77 A ± 0.36 log CFU/mL
same,log CFU/mL reduction,Listeria Monocytogenes; 48 ppm free chlorine,0.53 ± 0.21 log CFU/mL
same,log CFU/mL reduction,E. coli O157:H7 [5]; 10 ppm free chlorine,0.64 B^a ± 0.32^b log CFU/mL
same,log CFU/mL reduction,E. coli O157:H7 [5]; 16 ppm free chlorine,1.79 A ± 0.21 log CFU/mL
same,log CFU/mL reduction,E. coli O157:H7 [5]; 48 ppm free chlorine,0.33 ± 0.47^c log CFU/mL
same,average log reduction in previous studies,[6],1.24 log CFU
same,Inactivation,Listeria innocua,1.5 Log CFU
same,inactivation of pathogens,[7],1.53 log
same,Inactivation,"Aerobic Bacteria; Diced Tomato, Cl 200 PPM, 0.5 min, Simmons et al. (2006)",0.00 Log CFU
same,Inactivation,"Aerobic Bacteria; Lettuce, Cl 75 PPM, 5 min, Lu et al. (2007)",2.0 Log CFU
same,Inactivation,"Aerobic Bacteria; Lettuce, Cl 150 PPM, 10 min, Koseki et al. (2001)",2.0 Log CFU
same,Inactivation,"Aerobic Bacteria; Lettuce, Cl 200 PPM, 0.5 min, Simmons et al. (2006)",1.30 Log CFU
same,Inactivation,"Aerobic Bacteria; Lettuce, Cl 200 PPM, 10.0 min, Kondo et al. (2006)",0.9 Log CFU
same,Inactivation,"EHEC; Lettuce & Spinach, Cl 600 PPM, 3.0 min, Niemera, 2007",0.5 Log CFU
same,Inactivation,"EHEC; Lettuce, Cl 20 PPM, 1.0 min, Li et al. (2001)",1.1 Log CFU
same,Inactivation,Total Coliforms [8],<2.0 Log CFU
same,log CFU/mL reduction,Salmonella [9]; 10 ppm free chlorine,1.20 B ± 0.10 log CFU/mL
same,log CFU/mL reduction,Salmonella [9]; 16 ppm free chlorine,2.72 A ± 0.53 log CFU/mL
same,log CFU/mL reduction,Salmonella [9]; 48 ppm free chlorine,0.25 ± 0.25 log CFU/mL
same,Inactivation,"E. coli; Cabbage/Parsley, Seymot et al. (2002)",ca 1.45 Log CFU
same,Inactivation,"E. coli; Lettuce, Seymor et al. 2002",0.72 Log CFU
same,inactivated log CFU,[10],1.86 log CFU
same,Inactivation,"EHEC & Salmonella; 1.0 min, Koseki et al. (2003)",ca. 1.0 Log CFU
same,Inactivation,"EHEC & Salmonella; 10.0 min, Kondo et al. (2006)",1.2 Log CFU
same,inactivated log,[11],less than 0.76 log
same,"reduction, L. monocytogenes",L. monocytogenes [12],3.16 ± 0.61 B log CFU/g
same,Inactivation,"L. monocytogenes [13]; Lettuce (4° C.), Cl 200 PPM, 10.0 min, Zhang & Farber (1996)",1.3 Log CFU
same,Inactivation,"L. monocytogenes [13]; Lettuce, Cl 20 PPM, 0.5 min, Li et al. (2002)",1.2 Log CFU
same,Inactivation,"L. monocytogenes [13]; Lettuce, Cl 100 PPM, 1.0 min, Hellstrom et al. (2006)",0.7 Log CFU
same,Inactivation,"L. monocytogenes [13]; Lettuce, Cl 100 PPM, 5.0 min, Akbas and Oimez (2007)",1.7 Log CFU
